US8703195B2, “Method for solubilising, dispersing and stabilising of substances, products manufactured according to the method as well as the use thereof” (Biorem AG, priority 2006, dated 2014)
Read-outs that look alike come from different tables or passages of the source.

Key:
[1] = dissolved in water; cited from earlier work
[2] = Bioavailability of coenzyme Q10; assay type: in vivo; settings: oral administration, solubilised with poloxamer and resin or tocopherol by this method
[3] = cited from earlier work
[4] = unformulated active agent, in practice; cited from earlier work
[5] = pH 5; cited from earlier work

O=C1O[C@H]([C@@H](O)CO)C(O)=C1O [Vitamin C, ascorbic acid]
time until solution in water becomes light yellow [1]: 2 to 3 days

COC1=C(OC)C(=O)C(C/C=C(\C)CC/C=C(\C)CC/C=C(\C)CC/C=C(\C)CC/C=C(\C)CC/C=C(\C)CC/C=C(\C)CC/C=C(\C)CC/C=C(\C)CCC=C(C)C)=C(C)C1=O [coenzyme Q10]
bioavailability [2]: about 85% | solubility in water [3]: not water-soluble | bioavailability [4]: 10%

Abamectin
stability against hydrolysis in aqueous solutions [5]: stable
